According to patent US20130252843A1, “METHOD OF MAKING AND USING FLUORESCENT-TAGGED NANOPARTICLES AND MICROARRAYS” (THE STATE OF OREGON ACTING BY AND THROUGH THE STATE BOARD …, priority 2010, published 2013):
Where “and” joins values, the source holds several entries; their conditions need not be identical. Equal values may be shown once. Read-outs that look alike come from different tables or passages of the source.

How the values were obtained:
CVN-M = CVN-M (Nostoc ellipsosporum, UniProt P81180, E41A/N42A/T57A/R76A/Q78G)
Con A [1] = molecular target: T1, Con A (Canavalia ensiformis, UniProt P02866)
T1 construct: purchased Sigma-Aldrich Type IV (catalogue number not given)

CVN-Q = CVN-Q (Nostoc ellipsosporum, UniProt P81180, Q50C)
[2] = molecular target: blindly prepared lectins (U1-U7) (Glycine max, UniProt P05046); assay type: binding; parameters: unit not given here
Description: (§1) The unspecific binding sites of Sugar coupled Au-PFPA was inhibited by the addition of BSA (3% BSA, 0.2% Tween in PBS buffer pH 7). The 1,500 μL of sugar-coupled Au-PFPA was centrifuged at 9,000 rpm for 8 minutes and was redissolved in a PBS buffer with 3% BSA (0.2% Tween). The volume was made up to 900 μL. The resultant solution was incubated at room temperature with gentle shaking for 1 hour. The BSA blocked Au-PFPA-sugar nanoparticle was centrifuged at 10,000 rpm for 6 minutes and the excess BSA was removed. To a volume of 1,500 μL solution 10 mg/mL lectin (Con A—Concanavalin A, Canavalia ensiformis jack bean protein, SBA—soybean agglutinin, Glycine max and PNA—Peanut Agglutinin, Arachis hypogaea all purchased from Sigma Aldrich) was introduced the resultant solution was incubated at room temperature while gently shaking.
(§2) To test the training matrix and its strength to identify individual lectins, seven blindly prepared lectins (U1-U7) were used as test samples. The procedure for each test sample is the same as that used for the known samples used in the training matrix. The final SPR shift (Table 14) was used in the training matrix (Table 10) for prediction.

ConA-FSNPs = molecular target: T2, ConA-FSNPs (Canavalia ensiformis, UniProt P02866); experiment: Carbohydrate microarray incubated with ConA-FSNPs, fluorescence imaging; assay type: binding; conditions: PS coating; ConA-FSNPs 0.5 mg/ml
T2 construct: purchased Sigma-Aldrich Type IV
Description: This example concerns the fabrication of carbohydrate microarrays. […] The slides were then reacted with PAAm-4-PFPA solution at 50° C. for 5 hours, and sonicated twice in H2O for 5 minutes each time. Solutions of carbohydrates were prepared in H2O. […] The slides were dried under oil pump for 1 hour. A solution of PS or PEO in CHCl3 (5 mg/ml) was spinning-coated on the slides. The Slides were then covered with a 280-nm long-path optical filter (WG-280, Schott Glass), irradiated with a 450-W medium pressure Hg lamp (Hanovia) for 9 min, sonicated 5 min in CHCl3 and 5 minutes in H2O.
This example concerns microarray assay and fluorescence imaging. Carbohydrate microarrays were incubated in a 0.5 mg/ml solution of ConA-FSNPs in HEPES (pH 7.5, 1 mM CaCl2, 1 mM MnCl2) for 1 hour, rinsed with HEPES buffer 3 times and dried. The slides were scanned using a Genepix 4000B microarray scanner at excitation of 532 nm. Image analysis was carried out with Axon Genepix Pro 5.1 analysis software (Molecular Devices Corporation, Union City, Calif.).
FIG. 52 provides the fluorescence images of carbohydrate microarrays with PS or PEO coating incubated with ConA-FSNPs at 0.5 mg/ml. […] However, for carbohydrate microarrays having a PEO coating, the signal from those “high-intensity” carbohydrate targets was negative (FIG. 53).

[3] = UV irradiation photostability; assay type: physicochemical; conditions: 450-W medium-pressure Hg lamp, 10 minutes; of the original value
Description: To confirm that the entrapped FITC would withstand the UV irradiation conditions used for a subsequent photocoupling reaction, a solution containing FITC-doped SNPs was irradiated with a 450-W medium-pressure Hg lamp for 10 minutes. […] See, FIG. 6. On the other hand, when the […] was irradiated under the same conditions, the fluorescent intensity was reduced to about 50% of the original value. See, FIG. 7.

[4] = molecular target: RCA, Ricinus Communis Agglutinin I; conditions: cited from earlier work
PNA, Peanut Agglutinin = molecular target: T3, PNA, Peanut Agglutinin (Arachis hypogaea, UniProt P02872); conditions: cited from earlier work
T3 construct: purchased Sigma-Aldrich

[5] = molecular target: RCA (Ricinus Communis Agglutinin I) (Ricinus communis, UniProt P06750); conditions: free glycan; cited from earlier work
[6] = molecular target: DBA (Dolichos Biflorus Agglutinin) (Vigna unguiculata subsp. cylindrica, UniProt P05045); conditions: free glycan; cited from earlier work
SBA (Soybean Agglutinin) = SBA (Soybean Agglutinin) (Glycine max, UniProt P05046); conditions: free glycan; cited from earlier work
PNA [7] = molecular target: T4, PNA (Arachis hypogaea, UniProt P02872); conditions: free glycan; cited from earlier work
T4 construct: purchased Sigma-Aldrich
T4 sequence (P02872 24-273): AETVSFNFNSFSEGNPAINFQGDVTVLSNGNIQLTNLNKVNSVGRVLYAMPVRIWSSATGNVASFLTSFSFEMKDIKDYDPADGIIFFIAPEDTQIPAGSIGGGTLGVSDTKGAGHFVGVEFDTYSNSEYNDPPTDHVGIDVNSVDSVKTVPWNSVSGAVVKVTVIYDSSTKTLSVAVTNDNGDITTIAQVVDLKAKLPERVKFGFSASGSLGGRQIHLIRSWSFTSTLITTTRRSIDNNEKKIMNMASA

SBA = molecular target: T5, SBA (Glycine max, UniProt P05046); experiment: Protein bio assay, SPR shift of sugar coupled Au-PFPA nanoparticles with lectin; assay type: binding; parameters: unit: nm; conditions: replicates
T5 construct: purchased Sigma-Aldrich
Excerpt: (§3) In other particular embodiments, the interactions between one or more targets and one or more PHPA-derived nanoparticle probes can be measured using absorbance spectroscopy. Particular embodiments concern using surface plasmon resonance. In these embodiments, both the λmax produced before the PHPA-derived nanoparticle probe interacts with the target and the λmax produced after the PHPA-derived nanoparticle probe interacts with the target are detected. The change in λmax provides a numerical number that can be used in further statistical analysis.
as §1
(§4) A training matrix was created using three lectins (Con A, SBA and PNA) and four types of sugar-bound Au-PFPA nanoparticles. Each assay was repeated three times, providing a 3×4×3 training matrix (Table 10). The factor scores (Zi from equation (1) or Fi) calculated for the training matrix from XLSTAT® were F1=98.10% and F2=1.90%.
(§5) A study was also done to identify different lectins using specific binding interaction between lectins and sugars (Wang, X.; Ramstrom, O.; Yan, M. J. Mat. Chem. 2009, 19, 8944-8949). The lectins used in the study were Con A, SBA, PNA and GSII. The sugars used were D-Mannose, D-Glucose, D-Galactose, α-1,4-mannobiose, α-1,3-galactobiose and N-acetyl-D-glucosamine. These sugars are known to have specific binding to lectins (Jurs, P. Science 1986, 232, 1219-1224). The training matrix was created as four lectins×six sugars×five replicates (Table 12). […] The Wilk's lamda (A) value for the training set was 0.000. […] The 95% confidence ellipses show clear spatial separation, and no overlap between the ellipses is visible. Unlike the weak binding interactions studied in before using non-specific binding sugars, the strong binding sugars show very good class separation.

PNA [8] = molecular target: T4, PNA; experiment: as above; assay type: binding; parameters: unit: nm; conditions: replicates
Excerpt: as §3, §1, §4, §5

Con A [9] = molecular target: T1, Con A; experiment: as above; assay type: binding; parameters: unit: nm; conditions: replicates
Excerpt: as §3
as §1, with “shaking. […]” for “shaking.”

[10] = molecular target: blindly prepared lectins (U1-U7) (Arachis hypogaea, UniProt P02872); assay type: binding; parameters: unit not given here; conditions: unknown protein u5 (predicted class PNA)
Description: as §1, §2

[11] = molecular target: blindly prepared lectins (U1-U7) (Canavalia ensiformis, UniProt P02866); assay type: binding; parameters: unit not given here
Description: as §1, §2

[12] = free glycan; cited from earlier work
[13] = free glycan, solution; cited from earlier work
[14] = Domain A; cited from earlier work
[15] = Domain B; cited from earlier work
[16] = unknown protein u1 (predicted class SBA)
[17] = unknown protein u7 (predicted class SBA)
[18] = unknown protein u3 (predicted class Con A)
[19] = unknown protein u4 (predicted class Con A)
[20] = unknown protein u2 (predicted class SBA)
[21] = unknown protein u6 (predicted class SBA)

## OC[C@H]1O[C@H](O[C@@H]2[C@@H](O[C@@H]3C(O)O[C@H](CO)[C@@H](O)[C@@H]3O)O[C@H](CO)[C@@H](O)[C@@H]2O)[C@@H](O)[C@@H](O)[C@@H]1O (stereo partly drawn) [2α, 2α-Man3, α-1,2-α-1,2-mannotriose]
CVN-M; data in brackets, free ligand; read-out: dissociation constant of the free ligand with CVN-M; cited from earlier work
  Kd: 3.4 µM
CVN-M; [12]
  Association constant Ka with CVN-M: 294000 M⁻¹
CVN-M; free glycan; listed as 2α,2α-Man3; cited from earlier work
  Association constant Ka with CVN-M: 294000 M⁻¹
Con A [1]; data in brackets, free ligand; read-out: dissociation constant of the free ligand with Con A; cited from earlier work
  Kd: 2.97 µM
Con A [1]; [13]
  Association constant Ka with Con A: 379000 M⁻¹
Con A [1]; free glycan, solution; listed as 2α,2α-Man3; cited from earlier work
  Association constant Ka with Con A: 379000 M⁻¹
CVN-Q; [14]
  Association constant Ka with CVN-Q: 2.94 × 10^5 (Domain A); M^−1
CVN-Q; [15]
  Association constant Ka with CVN-Q: 2.33 × 10^4 (Domain B) M^−1
CVN-Q; data in brackets, free ligand; read-out: dissociation constant of the free ligand with CVN-Q; cited from earlier work
  Kd: 15.5 µM

## O=C[C@H](O)[C@@H](O)[C@H](O[C@@H]1O[C@H](CO)[C@@H](O)[C@H](O)[C@H]1O)[C@H](O)CO [Cellobiose]
[2]; [16]
  Unknown SPR shift, weak binders: 2.1
[2]; [17]
  Unknown SPR shift, weak binders: 2.1

## OC[C@H]1O[C@H](O[C@@H]2C(O)O[C@H](CO)[C@@H](O)[C@@H]2O)[C@@H](O)[C@@H](O)[C@@H]1O (stereo partly drawn) [Compound 2α-Man2, 2-O-α-D-Mannopyranosyl-D-mannopyranose]
CVN-M; [12]
  Association constant Ka with CVN-M: 1320 M⁻¹
CVN-M; read-out: dissociation constant of the free ligand with CVN-M; data in brackets, free ligand; cited from earlier work
  Kd: 757 µM
Con A [1]; [13]
  Association constant Ka with Con A: 41700 M⁻¹
Con A [1]; read-out: dissociation constant of the free ligand with Con A; data in brackets, free ligand; cited from earlier work
  Kd: 24 µM
ConA-FSNPs
  labeling intensity by ConA-FSNPs on carbohydrate microarray: most intensely
CVN-Q; [14]
  Association constant Ka with CVN-Q: 1.43 × 10^3 (Domain A); M^−1
CVN-Q; [15]
  Association constant Ka with CVN-Q: 1.56 × 10^4 (Domain B) M^−1
CVN-Q; read-out: dissociation constant of the free ligand with CVN-Q; data in brackets, free ligand; cited from earlier work
  Kd: 89.8 µM

## O=C(O)c1cc(N=C=S)ccc1-c1c2ccc(=O)cc-2oc2cc(O)ccc12 [FITC, fluorescein isothiocyanate]
[3]
  fluorescence intensity after UV irradiation: about 50%

## OC[C@H]1OC(O)[C@H](O)[C@@H](O)[C@H]1O (stereo partly drawn) [Gal, D-(+)-galactose]
[4]
  Ka: ~10^3 M^−1
PNA, Peanut Agglutinin
  Ka: ~10^3 M^−1

## CC(=O)N[C@H]1C(O)O[C@H](CO)[C@H](O)[C@@H]1O (stereo partly drawn) [GalNAc]
[5]
  Association constant Ka with RCA: 48400 M⁻¹
[6]
  Association constant Ka with DBA: 4200 M⁻¹
SBA (Soybean Agglutinin)
  Association constant Ka with SBA: 1.51e+06 M⁻¹
PNA [7]
  Association constant Ka with PNA: 2430 M⁻¹

## OC[C@H]1O[C@@H](O[C@H]2[C@H](O)[C@@H](O)[C@@H](O)O[C@@H]2CO)[C@H](O)[C@@H](O)[C@H]1O [Lac]
ConA-FSNPs
  labeling intensity by ConA-FSNPs on carbohydrate microarray: slightly less

## Arabinose
SBA
  SPR shift, training matrix: 5.1 and 5.9 and 4.5
PNA [8]
  SPR shift, training matrix: 2.1 and 1.8 and 1.6
Con A [9]
  SPR shift, training matrix: 1.9 and 0.8 and 1.1
[10]
  Unknown SPR shift, weak binders: 1.9
[11]; [18]
  Unknown SPR shift, weak binders: 1.1
[11]; [19]
  Unknown SPR shift, weak binders: 1
[2]; [16]
  Unknown SPR shift, weak binders: 4.5
[2]; [20]
  Unknown SPR shift, weak binders: 5
[2]; [21]
  Unknown SPR shift, weak binders: 4.5
[2]; [17]
  Unknown SPR shift, weak binders: 4.5

## Dextran
ConA-FSNPs
  labeling intensity by ConA-FSNPs on carbohydrate microarray: slightly less

## Lactose
SBA
  SPR shift, training matrix: 1.5 and 3.7 and 1.1
PNA [8]
  SPR shift, training matrix: 3.7 and 2 and 2.4
Con A [9]
  SPR shift, training matrix: 6.2 and 5.1 and 7.9
[10]
  Unknown SPR shift, weak binders: 2.5
[11]; [18]
  Unknown SPR shift, weak binders: 5.5
[11]; [19]
  Unknown SPR shift, weak binders: 5.7
[2]; [16]
  Unknown SPR shift, weak binders: 1.6
[2]; [20]
  Unknown SPR shift, weak binders: 1.1
[2]; [21]
  Unknown SPR shift, weak binders: 1.6
[2]; [17]
  Unknown SPR shift, weak binders: 1.1
